Measured values: patent US20260309717A1, “PROXIMITY INDUCING SYSTEM AND USES THEREOF” (SORBONNE UNIVERSITE, priority 2022, published 2026)

Biological target: T1, ^FIREmate and ^FIREtag (TOM20-ECFP-^FIREmate / mCherry-^FIREtag) (Halorhodospira halophila, UniProt P16113, A30V/C69G/D97P/F96I, form not given/G21E/G25R/K17N/M100R/M109L/Q41L/Q99S/S72T/T101G/V83A/Y94W/Y98T)
T1 construct: TOM20(1-34)-ECFP-FIREmate and mCherry-FIREtag in HeLa or U2OS cells
T1 sequence (P16113 1-114 A30V/C69G/D97P/F96I/G21E/G25R/K17N/M100R/M109L/Q41L/Q99S/S72T/T101G/V83A/Y94W/Y98T): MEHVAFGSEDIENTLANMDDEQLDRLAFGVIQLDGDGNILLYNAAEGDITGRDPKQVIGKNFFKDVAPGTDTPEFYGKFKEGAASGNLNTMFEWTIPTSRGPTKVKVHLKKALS
Test: Recruitment of cytoplasmic mCherry-^FIREtag to mitochondria (TOM20-ECFP-^FIREmate), time-lapse confocal microscopy, HeLa cells
Assay type: cell-based
Conditions: 10 μM
Description: FIGS. 3A-E illustrate the recruitment of cytoplasmic proteins to mitochondria with the proximity inducing system described herein. FIG. 3A is a schematic representation of the experimental design wherein HeLa cells co-expressing mCherry-^FIREtag and Tom20-ECFP-^FIREmate were treated with 10 μM of match (either HBR-2,5DM or HMBR), and imaged by time-lapse confocal microscopy. FIGS. 3B-C are graphs showing the temporal evolution of the FIRE signal detected upon addition at 0 min of HBR-2,5DM (match1-3B) or HMBR (match2-3C). Data represents the mean values±SD of 20 cells from n=3 independent experiments (3B, D), or of 10 cells from n=3 independent experiments (3C, E). FIGS. 3D-E are sets of representative confocal micrographs of cells before (0 min) and after (5 min) addition of HBR-2,5DM (match1-3D) or HMBR (match2-3E) (mCherry: ex/em 561/606-675 nm; FIRE: ex/em 488/508-570 nm; ECFP: ex/em 445/455-499 nm). […] Scale bars are 20 μm.
FIGS. 4A-D illustrate the recruitment over time of cytoplasmic proteins to mitochondria with the proximity inducing system described herein. (4A, C) HeLa cells co-expressing mCherry-^FIREtag and Tom20-ECFP-^FIREmate were treated with 10 μM HBR-2,5DM and imaged by time-lapse confocal microscopy at 1 image per 5 seconds. […] FIG. 4C is a graph showing the temporal evolution of the FIRE signal detected in HeLa cells upon addition of HBR-2,5DM at 0 sec. […] FIG. 4D is a graph showing the temporal evolution of the FIRE signal detected in U2OS cells upon addition of HBR-2,5DM at 0 min. […]
The confocal micrographs were acquired on a Zeiss LSM 980 Laser Scanning Microscope equipped with a plan apochromat 63x/1.4 NA oil immersion objective. […] The images were analyzed using Icy (2.4.0.0) and Fiji (Image J). In short, to track fluorescence signal in a specific organelle, a ROI (region of interest) was determined by masking the signal in the ECFP (Enhanced Cyan Fluorescent Protein) channel with the plug-in HK-means with the following parameters: intensity class equals 100, minimum object size (pixels or px) equals 500, maximum object size (px) equals 1500-3000. […]

Cc1cc(/C=C2\SC(=S)NC2=O)c(C)cc1O [HBR-2,5DM, (Z)-5-(4-hydroxy-2,5-dimethylbenzylidene)-2-thioxo-1,3-thiazolidin-4-one]
half-time of formation of the ternary fluorescent assembly (1 image per 5 seconds): about 20 seconds
translocation of mCherry-^FIREtag from cytosol to mitochondria (5 min): very rapid translocation of the mCherry-^FIREtag fusion protein from the cytosol to mitochondria
FIRE signal (fluorescence) at the mitochondria (ex/em 488/508-570 nm): simultaneous appearance of a strong green fluorescent signal
